Assay results published in US20080293969A1, “18F-Labeled Daa Analogues and Method of Labeling These Analogues as Positron Emission Tomography (Pet) Tracers For Imaging Peripheral Benzodiazepine Receptors” (GE Healthcare Limited, priority 2005, published 2008).

Tests used:
PBR = PBR (Homo sapiens, UniProt P30536); settings: reported, Drug Dev. Research, 2001, vol. 52, 475-484; cited from earlier work
Biodistribution in rats = assay type: in vivo, male Sprague-Dawley rats; settings: 10 MBq/kg tail vein, 15 min post-injection
Description: SAN1 at 10 MBq/kg was injected in the tail vein of male Sprague-Dawley rats. Rats were sacrificed 15 min post-injection and blood, cortex, olfactory bulb, adrenal and cerebellum were dissected, weighed and radioactivity in the organs was measured. Uptake in organs was expressed as Standardized Uptake Value, SUV. The scope of this experiment was to assess blood brain penetration of the radiolabeled compound as well as its distribution to organs known to express PBR, e.g. adrenal medulla. […] Additionally, we observed a large uptake of SAN1 in adrenal which is the peripheral organ with the highest density of PBRs. Biodistribution data from 4 rats was summarized and is shown in the diagram below, error bars represent the SEM.

[1] = molecular target: T1, peripheral benzodiazepine receptors (PBR) (Sus scrofa, UniProt Q6UN27); assay: Frozen section autoradiography; assay type: binding, pig
T1 construct: from tissue; host or cells: pig adrenal cryosections (rat heart and rat brain sections were run in the same assay)
T1 sequence (Q6UN27 1-169): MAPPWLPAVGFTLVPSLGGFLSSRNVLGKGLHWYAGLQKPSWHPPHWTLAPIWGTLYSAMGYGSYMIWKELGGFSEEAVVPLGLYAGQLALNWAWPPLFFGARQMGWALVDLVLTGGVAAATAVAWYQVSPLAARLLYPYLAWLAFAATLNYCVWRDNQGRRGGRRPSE
Description: (§1) Frozen Section Autoradiography.
(§2) Cryosections of pig adrenal, rat heart and rat brain were incubated with [^18F] labeled N-(2,5-dimethoxybenzyl)-3-fluoro-N-(5-fluoro-2-phenoxy-phenyl)propanamide (SAN1) for 40 min at R.T. in 50 mM Tris-HCl, pH 7.4, in the presence or absence of 1 μM PK11195 (selective PBR ligand). Thereafter, sections were washed in buffer 3×1 min, dried in a heated oven (37° C.) and exposed to phosphor imaging plates for 240 min. Assessment of the selectivity of the radioligand for PBRs was assessed by comparing the regional distribution of radioactivity with known distribution of PBRs in tissue. Another parameter investigated was the blocking effect in sections which were co-incubated with an excess of PK11195.

[2] = tested on: peripheral benzodiazepine receptors (PBR); assay: Frozen section autoradiography; assay type: binding, pig; settings: frozen section autoradiography
Description: as §1, §2

Sequence of PBR (P30536 whole entry, species assumed): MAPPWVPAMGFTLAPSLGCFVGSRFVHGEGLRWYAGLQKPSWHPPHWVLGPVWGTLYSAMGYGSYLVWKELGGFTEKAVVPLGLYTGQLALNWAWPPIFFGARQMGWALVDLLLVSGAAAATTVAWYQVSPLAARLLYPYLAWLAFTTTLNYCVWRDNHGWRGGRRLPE

SMILES	affinity and selectivity for PBR (PBR)	brain to blood ratio (Biodistribution in rats; all regions analyzed (cortex, olfactory bulb, cerebellum), particularly olfactory bulb)	uptake in adrenal (Biodistribution in rats; uptake expressed as SUV)	blocking of adrenal medulla uptake by an excess of PK11195 ([1]; co-incubated with 1 μM PK11195)	uptake in adrenal medulla ([1]; cryosections of pig adrenal, incubated 40 min at R.T., 50 mM Tris-HCl pH 7.4)	binding and specificity for PBR-rich tissues [2]
COc1ccc(OC)c(CN(C(C)=O)c2cc(F)ccc2Oc2ccccc2)c1 [DAA1106, N-(2,5-dimethoxybenzyl)-N-(5-fluoro-2-phenoxyphenyl)acetamide]	high affinity selective ligands	–	–	–	–	–
COc1ccc(OC)c(CN(C(=O)CC[18F])c2cc(F)ccc2Oc2ccccc2)c1 [SAN1, [^18F] labeled N-(2,5-dimethoxybenzyl)-3-fluoro-N-(5-fluoro-2-phenoxy-phenyl)propanamide]	–	above 1	large uptake	completely blocked	high uptake	good binding and specificity
CC(=O)N(Cc1ccccc1OC(C)C)c1ccc(Cl)cc1Oc1ccccc1 [DAA1097, N-(4-chloro-2-phenoxyphenyl)-N-(2-isopropoxybenzyl)-acetamide]	high affinity selective ligands	–	–	–	–	–
